Series [1] is described as follows: Residence within the vasculature after injection. Format: in vivo. To be noted: nanoparticles. The method, then:
WIN 72115 was designed to be excited with incident radiation from an Argon Ion laser (in the green, near 514 nm) and emit light at wavelengths above that value. Thus, after injection, illumination of the patient with green light would stimulate emission of light of a slightly different wavelength that could be used for diagnostic purposes. The key features of this agent are that it can be prepared as nanoparticles, remain within the vasculature for greater than 15 minutes, provide both scattering and fluorescence contrast for light imaging. In place of WIN 72115, the photolabelled agent of Example 22 below may be used.

A short description of series [2]: Average particle size of milled nanoparticle suspensions (light scattering). To be noted: 15 gm agent and 3 gm Pluronic F108 per 100 ml, light scattering. The method, then:
WIN 70146 (an iodinated X-ray contrast agent prepared according to Example 23 below) was added to each of 3×1.5 oz brown glass bottles containing approximately 12 ml of zirconium silicate, 1.1 mm diameter beads in an amount sufficient to be 15% (wt/vol %) of the final suspension. Bottle A was also made 3% (wt/vol %) Pluronic F-68 while bottle B was made 3% (wt/vol %)) Pluronic F-108 and bottle C was made 3% (wt/vol %) Tetronic T-908. The resulting suspensions were milled at approx 150 rpm for a total of 9 days with estimates of particle size determined at various intervals as detailed below.
WIN 70146 was milled with 1.1 mm diameter zirconium silicate beads for 3 days under aseptic conditions. The concentration of this agent was 15% WIN 70146 in the presence of 4% Pluronic F-108. No additional salts or surfactants were added.
WIN 70146 was milled with 1.1 mm diameter zirconium silicate beads in the presence of Pluronic F-108 for 3 days. […] At this point, sterile PEG 400 was added to the suspension such that at completion, the formulation contained 15% (wt/vol %) WIN 70146, 3% (wt/vol %) Pluronic F-108 and 10% PEG 400.
(§1) This suspension was then diluted in water to various levels listed below. The percent of incident light transmitted was then determined for each suspension at several wavelengths (see below). The suspensions were then dissolved by addition of methanol and examined for percent transmitted light against an equivalent solvent blank.
A formulation of WIN 70177 (an iodinated X-ray contrast agent prepared according to Example 24) was prepared as 15 gm of WIN 70177/100 ml of suspension and 4.25-gm of Pluronic F108/100 ml of suspension and 10 gm of PEG 400/100 ml of suspension.
A formulation of WIN 67722 (an iodinated X-ray contrast agent as described in U.S. Pat. No. 5,322,679) was prepared as in Example 1 using 3% Pluronic F108 and 15% PEG 1450.
as §1

This note sets out measurements from patent US7014839B2, “Light imaging contrast agents” (Amersham Health AS, priority 1995, dated 2006).

`CCOC(=O)c1c(I)c(NS(=O)(=O)c2cccc3c(N(C)C)cccc23)c(I)c(N(CC)C(C)=O)c1I` [WIN 72115, 3-(N-Acetyl-N-ethylamino)-5-[(5-dimethylamino-1-naphthylsulfonyl)amino]-2,4,6-triiodobenzoic Acid Ethyl Ester]: the melting point (commonly the temperature, or range, at which the solid turns liquid) fell in the range of 238 to 240 °C. In addition, the “Time remaining within the vasculature” value in series [1] is listed as “greater than 15 minutes”. Moreover, the average particle size in series [2] stood at 225 nm.
